Measured values reported in ChEMBL document CHEMBL5244281, “Tackling multidrug-resistant Staphylococcus aureus by natural products and their analogues acting as NorA efflux pump inhibitors” (Bioorg Med Chem, 2023).
Converted amounts (≈) assume the structure as drawn.

What was measured:
[1] = system: Mycolicibacterium smegmatis; assay: Antibacterial activity against Mycobacterium smegmatis ATCC 607 assessed as bacterial growth inhibition incubated for 3 days by CLSI protocol based microbroth dilution method; format: functional; conditions: ATCC 607, 72 h, time 3 day
Staphylococcus aureus [2] = assay: Antibacterial activity against Staphylococcus aureus NCTC 8325-4 assessed as bacterial growth inhibition incubated for 18 hrs by broth microdilution method; format: functional
[3] = target: T1, Quinolone resistance protein NorA (Staphylococcus aureus) (UniProt P0A0J7); assay: Inhibition of NorA efflux pump in methicillin-resistant Staphylococcus aureus clinical isolate assessed as decrease in ciprofloxacin MIC and measured for 20 mins in presence of ciprofloxacin by spectrofluorimetric analysis (Rvb=128 ug/ml)
T1 sequence (whole entry): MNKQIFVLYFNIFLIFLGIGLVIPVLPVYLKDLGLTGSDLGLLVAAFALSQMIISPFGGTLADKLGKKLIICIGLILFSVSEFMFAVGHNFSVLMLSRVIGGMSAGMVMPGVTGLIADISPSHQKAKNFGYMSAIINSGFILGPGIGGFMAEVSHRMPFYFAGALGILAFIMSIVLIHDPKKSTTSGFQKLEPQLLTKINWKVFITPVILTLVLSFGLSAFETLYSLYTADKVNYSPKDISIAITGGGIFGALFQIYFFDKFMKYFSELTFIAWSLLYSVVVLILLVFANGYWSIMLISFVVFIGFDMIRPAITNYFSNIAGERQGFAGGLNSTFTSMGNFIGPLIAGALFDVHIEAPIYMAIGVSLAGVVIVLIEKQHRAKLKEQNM

[4] = target: T1, Quinolone resistance protein NorA (Staphylococcus aureus); assay: Inhibition of NorA efflux pump in Staphylococcus aureus 1199B overexpressing NorA efflux pump assessed as decrease in ciprofloxacin MIC and […] (Rvb=8 ug/ml)
Staphylococcus aureus [5] = assay: Synergistic antibacterial activity against methicillin-resistant Staphylococcus aureus clinical isolate assessed as fractional inhibitory concentration index in presence of ciprofloxacin by checkerboard assay; format: functional
[6] = target: T1, Quinolone resistance protein NorA (Staphylococcus aureus); assay: Inhibition of NorA efflux pump in methicillin-resistant Staphylococcus aureus clinical isolate assessed as EtBr MIC using EtBr as substrate at 64 ug/ml and measured for 20 mins by spectrofluorimetric analysis (Rvb=[…] ug/ml); conditions: dose 64.0 µg/ml
Staphylococcus aureus [7] = assay: Antibacterial activity against methicillin-resistant Staphylococcus aureus clinical isolate assessed as bacterial growth inhibition by broth dilution method; format: functional
Staphylococcus aureus [8] = assay: Potentiation of tetracycline-induced inhibition of TetK efflux pump in Staphylococcus aureus IS-58 overexpressing TetK efflux pump assessed as reduction in tetracycline MIC at 1/8 times of MIC incubated for 24 hrs by resazurin based assay (Rvb=192 ug/ml)
Staphylococcus aureus [9] = assay: Antibacterial activity against norfloxacin resistant Staphylococcus aureus 1199B harboring NorA efflux pump assessed as bacterial growth inhibition incubated for 24 hrs by broth microdilution method; format: functional
Staphylococcus aureus [10] = assay: Antibacterial activity against Staphylococcus aureus IS-58 harboring TetK efflux pump protein assessed as bacterial growth inhibition incubated for 24 hrs by broth microdilution method; format: functional
[11] = target: T1, Quinolone resistance protein NorA (Staphylococcus aureus); conditions: 1199B
Staphylococcus aureus [12] = assay: Synergistic antibacterial activity against methicillin resistant Staphylococcus aureus clinical isolates assessed as fractional inhibitory concentration index in presence of norfloxacin; format: functional
Staphylococcus aureus [13] = assay: Synergistic antibacterial activity against methicillin resistant Staphylococcus aureus clinical isolates assessed as fractional inhibitory concentration index in presence of ofloxacin; format: functional
Staphylococcus aureus [14] = assay: Antibacterial activity against methicillin resistant Staphylococcus aureus clinical isolates assessed as bacterial growth inhibition; format: functional
Staphylococcus aureus [15] = assay: Synergistic antibacterial activity against methicillin resistant Staphylococcus aureus clinical isolates assessed as fractional inhibitory concentration index in presence of ciprofloxacin; format: functional
[16] = target: T1, Quinolone resistance protein NorA (Staphylococcus aureus); assay: Inhibition of NorA efflux pump in Staphylococcus aureus 1199B overexpressing NorA efflux pump assessed as minimum effective concentration for 18 to 20 hrs; conditions: time 18-20 hrs
[17] = target: T1, Quinolone resistance protein NorA (Staphylococcus aureus); assay: Potentiation of ciprofloxacin-induced inhibition of NorA efflux pump in Staphylococcus aureus 1199B overexpressing NorA efflux pump assessed as ciprofloxacin MIC at 100 ug/ml for 18 to 20 hrs by checkerboard method (Rvb=4 ug/ml); conditions: dose 100.0 µg/ml, time 18-20 hrs
[18] = target: T1, Quinolone resistance protein NorA (Staphylococcus aureus); assay: Potentiation of ciprofloxacin-induced inhibition of NorA efflux pump in Staphylococcus aureus 1199 assessed as ciprofloxacin MIC at 100 ug/ml for 18 to 20 hrs by checkerboard method (Rvb=0.25 ug/ml); conditions: dose 100.0 µg/ml, time 18-20 hrs
Staphylococcus aureus [19] = assay: Antibacterial activity against methicillin-resistant Staphylococcus aureus 1199B overexpressing NorA efflux pump assessed as bacterial growth inhibition incubated for 18 hrs by broth microdilution method; format: functional
Staphylococcus aureus [20] = assay: Antibacterial activity against kanamycin-resistant Staphylococcus aureus APH3' assessed as bacterial growth inhibition incubated for 18 hrs by broth microdilution method; format: functional
Staphylococcus aureus [21] = assay: Antibacterial activity against methicillin-resistant Staphylococcus aureus RN4220/pUL5054 overexpressing MsrA efflux pump assessed as bacterial growth inhibition incubated for 18 hrs by broth microdilution method; format: functional
Staphylococcus aureus [22] = assay: Antibacterial activity against fusidic acid-resistant Staphylococcus aureus APH4' assessed as bacterial growth inhibition incubated for 18 hrs by broth microdilution method; format: functional
Staphylococcus aureus [23] = assay: Antibacterial activity against gentamicin-resistant Staphylococcus aureus APH2" AAC6 assessed as bacterial growth inhibition incubated for 18 hrs by broth microdilution method; format: functional
Staphylococcus aureus [24] = assay: Antibacterial activity against Staphylococcus aureus ST239 assessed as bacterial growth inhibition incubated for 18 hrs by broth microdilution method; format: functional
Pseudomonas aeruginosa = assay: Antibacterial activity against Pseudomonas aeruginosa 24 assessed as bacterial growth inhibition incubated for 24 hrs by broth microdilution method; format: functional
Escherichia coli = assay: Antibacterial activity against Escherichia coli 06 assessed as bacterial growth inhibition incubated for 24 hrs by broth microdilution method; format: functional
Staphylococcus aureus [25] = assay: Antibacterial activity against Staphylococcus aureus 10 assessed as bacterial growth inhibition incubated for 24 hrs by broth microdilution method; format: functional

`COc1c(O)c(OC)c2oc(-c3ccc(O)cc3)c(OC)c(=O)c2c1O` gave an MIC [1] of 75 µg/mL (≈ 208 µM) and an MIC (Staphylococcus aureus [2]) of over 800 µg/mL.
For `COC(=O)/C=C/c1ccc(OCC(=O)Nc2ccc(C)cc2)c(OC)c1`, the MIC [3] was 64 µg/mL, the MIC [4] was 2 µg/mL and the “fractional inhibitory concentration index (FICI)” value (Staphylococcus aureus [5]) was 0.75. For the same molecule, the MIC [6] was 4 µg/mL and the MIC (Staphylococcus aureus [7]) was over 125 µg/mL.
For `CC1=CC[C@@H]([C@@](C)(O)CCCC(C)C)CC1`, the MIC (Staphylococcus aureus [8]) was 128 µg/mL, the MIC (Staphylococcus aureus [9]) was at least 1020 µg/mL and the MIC (Staphylococcus aureus [10]) was at least 1020 µg/mL. It also gave an MIC [11] of 32 µg/mL (≈ 143 µM).
For `CC1=CCC[C@@]2(C)[C@@]1(C)CC[C@@H](C)[C@]2(C)CCC1=CC(=O)O[C@@H]1O`, the “fractional inhibitory concentration index (FICI)” value (Staphylococcus aureus [12]) was 0.315, the “fractional inhibitory concentration index (FICI)” value (Staphylococcus aureus [13]) was 0.324 and the MIC (Staphylococcus aureus [14]) was 15.6 µg/mL (≈ 47 µM). The “fractional inhibitory concentration index (FICI)” value (Staphylococcus aureus [15]) was 0.324.
Molecule `CC(C)/C=C/CCCCC(=O)NCc1ccc(O)c(OCc2nnc(Nc3cccc(Br)c3)o2)c1` has an MEC [16] of 12.5 µg/mL, an MIC [17] of 0.5 µg/mL and an MIC [18] of 0.12 µg/mL.
`O=c1cc(-c2ccccc2)oc2cc(O)c(O)c(O)c12` [BAICALEIN] showed an MIC (Staphylococcus aureus [19]) of 128 µg/mL (≈ 474 µM), an MIC (Staphylococcus aureus [20]) of 64 µg/mL (≈ 237 µM) and an MIC (Staphylococcus aureus [21]) of 64 µg/mL (≈ 237 µM). The MIC (Staphylococcus aureus [22]) was 128 µg/mL (≈ 474 µM), the MIC (Staphylococcus aureus [23]) was 128 µg/mL (≈ 474 µM) and the MIC (Staphylococcus aureus [24]) was 128 µg/mL (≈ 474 µM).
In the case of `C=C1CC/C=C(\C)CC[C@@H]2[C@@H]1CC2(C)C` [BETA-CARYOPHYLLENE], the MIC (Pseudomonas aeruginosa) is reported as at least 1020 µg/mL, the MIC (Escherichia coli) is reported as at least 1020 µg/mL and the MIC (Staphylococcus aureus [25]) is reported as 32 µg/mL (≈ 157 µM).
